Values after ≈ are worked out from the molar mass of the structure shown.
Columns and labels:
JRFL (R5) pseudovirus = assay: Viral entry, Env pseudovirus with luciferase readout: JRFL; assay type: cell-based, HIV-1; conditions: from IC50 data of table 3
Protocol: (§1) In preliminary experiments we tested the panel of peptides for inhibition of HIV-1 infectivity using a single CXCR4-using T cell line-adapted virus isolate: HIV-1IIIB. Serial dilutions of the peptides were added to the target cells immediately followed by virus. After 5-7 days culture, supernatant was tested for viral p24 activity using a sensitive p24 ELISA. […] These viruses carry a luciferase readout and are competent for a single cycle of replication only. We chose to test Env from […] viruses representing: X4 TCLA virus (HXB2); X4 primary isolate (WHO D clade); R5X4 dual tropic primary isolate (W61D) and R5 primary isolates (JRFL and Bal).

[1] = system: W61D (R5X4 dual tropic primary isolate) pseudovirus; assay: Viral entry, Env pseudovirus with luciferase readout: W61D; assay type: cell-based, HIV-1; conditions: for N36E on CCR5+ indicator cells
Protocol: as §1

[2] = system: HXB2 (X4 TCLA virus) pseudovirus; assay: Viral entry, Env pseudovirus with luciferase readout: HXB2; assay type: cell-based, HIV-1; conditions: from IC50 data of table 3
Protocol: as §1

HIV-1 pseudovirus = assay: Timing of peptide addition and inhibition of pseudovirus infection; assay type: cell-based
HIV-1 [3] = conditions: for activity compared with the new analogues of T-20, T-21 and DP219: qualitative comparison
Protocol: Peptides were tested in vitro for inhibition of early steps in cell-free HIV-1 infection and direct cell-to-cell spread of virus using T-cell line-adapted and primary isolates and recombinant HIV-1 viruses pseudotyped for env using CCR5, CXCR4 or both coreceptors.
Selected de novo designed peptides according to the invention (S291, N36E, W37Q and W371) and the new analogues of T20, T21 and DP219 were evaluated for inhibition of both cell-free HIV-1 infection and of direct cell-to-cell spread using a range of T-cell line-adapted and primary isolates and recombinant HIV-1 pseudotyped for env derived from patient isolates of different clades.

HIV-1 [4] = conditions: for activity compared with T20 and T1249: across clades, Figs 5 and 6; for IC50: read-out: IC50 in hPBMCs, independent assays in hPBMCs (N36E 6, W37Q 5)
Protocol: The peptides were evaluated against two HIV-1 stains IIIB and BR92/92/021. These two stains were selected in part based on their co-receptor utilization preferences; HIV-1 IIIB utilizes the CXCR4 co-receptor whereas HIV-1 BR92 utilizes CCR5. To test anti-HIV efficacy, fresh Human Peripheral Blood Mononuclear Cells (PBMCs) were obtained from single, normal hepatitis and HIV-1 negative donors. The cells were stimulated by a using CD3+method. Drug testing was performed in a 96 well format in triplicate. Each plate contained control wells (cells+virus), experimental wells (drug+cells+virus) and compound control wells (drug+cells, to monitor cytotoxicity). The read-out for viral infectivity after seven days of infection was based on reverse transcriptase activity of cell free supernatant samples. Drug toxicity was determined in the control well by a standard assay using the tetrazolium compound, which was converted in live cells into a colored formazan product that can readily be monitored on the microtiter plate.
PBMCs were stimulated via the CD3 antigen that is part of the T cell receptor. […] The T cell preparation contains about 50% CD4+cells that are susceptible to HIV-1 infection. Therefore no further separation between CD4+ and CD8+cells is necessary.
The data were obtained according to the following protocol:
Pre-incubate diluted peptides (0 to 50 ug/ml) with virus strain
Add 3 day anti-CD3 stimulated human peripheral blood mononuclear cells (50,000/well)
Incubate 37° C. for 6 days in IL-2 containing media
Test cell-free culture supernatants for reverse transcriptase (RT) activity at day 6
Test cells in cultures for toxicity using an MTS (CellTiter96 Reagent Promega) staining for cell viability
All assay results shown were done in triplicate

HIV-1 IIIB = assay type: cell-based; conditions: lab-adapted HIV-1 IIIB
Protocol: Both involved the culture of the virus with the peptide or its scrambled form for 1 hr at 37° C., 5% CO2 and then subsequent addition of target cells for 7 days. Inhibition was assessed using an enzyme-linked immunosorbent assay (ELISA) of viral core protein p24 antigen.

[5] = system: WHO isolate Clade D (X4) pseudovirus; assay: Viral entry, Env pseudovirus with luciferase readout: WHO isolate Clade D; assay type: cell-based, HIV-1; conditions: from IC50 data of table 3
Protocol: as §1

[6] = biological target: HIV-1 IIIB gp41 (HIV-1 IIIB); assay: cell-based or functional assay
[7] = system: HL2/3 cells expressing HIV-1IIIB Env fusing with MAGI-CCR5 cells; assay type: cell-based; conditions: MAGI-CCR5 / HL2/3; read-out: IC50 cell fusion assay
Protocol: A second panel of anti-HIV-1 peptides according to the invention was evaluated for using the MAGI-CCR5 antiviral assay and a gene reporter cell fusion assay. MAGI-CCR5 is an HIV-1 indicator cell line derived from HeLa cells that express CD4 and the HIV-1 coreceptors CCR5 and CXCR4. These cells contain a gene reporter cassette of β-galactosidase that is expressed from an HIV-1 LTR. Expression of the reporter gene is dependent on the production of HIV-1 tat that occurs following HIV-1 entry. The read-out for viral infectivity after two days of incubation is measurement of β-galactosidase expression detectable by chemoluminescence. The assay structure in the 96 well format as that used in the PBMC assay. The cell fusion assay uses the same indicator cell line (MAGI-CCR5), which is incubated with a HeLa cell based cell line HL2/3 that expresses HIV-1IIIB Env on its surface and contains Tat and Rev expression cassettes. When HL2/3 cells fuse with the MAGI-CCR5 cells, HIV-1 Tat is delivered into the indicator cells leading to activation of the β-galactosidase gene which is under the control of the HIV-1 LTR. The enzyme activity is read out in a similar fashion by chemoluminescence using the same assay structure as mentioned above. This assay is uniquely sensitive to entry inhibitors. […]

## CC[C@H](C)[C@H](NC(=O)[C@H](CC(C)C)NC(=O)[C@H](CO)NC(=O)[C@H](Cc1ccc(O)cc1)NC(=O)[C@@H](NC(=O)[C@H](CC(C)C)NC(=O)[C@H](CO)NC(=O)[C@@H](NC(=O)[C@H](Cc1ccc(O)cc1)NC(=O)[C@H](CC(N)=O)NC(=O)[C@H](CC(=O)O)NC(=O)[C@@H](NC(=O)[C@H](CCC(=O)O)NC(=O)[C@H](CCCNC(=N)N)NC(=O)[C@H](CCC(=O)O)NC(=O)[C@H](Cc1c[nH]c2ccccc12)NC(=O)[C@H](CCC(=O)O)NC(=O)[C@H](CCSC)NC(=O)[C@H](Cc1c[nH]c2ccccc12)NC(=O)[C@@H](NC(=O)[C@H](CCSC)NC(=O)[C@H](CC(N)=O)NC(=O)[C@@H](N)CC(N)=O)[C@@H](C)O)[C@@H](C)CC)[C@@H](C)O)[C@@H](C)CC)C(=O)N[C@@H](CCC(=O)O)C(=O)N[C@@H](CCC(=O)O)C(=O)N[C@@H](CO)C(=O)N[C@@H](CCC(N)=O)C(=O)N[C@@H](CC(N)=O)C(=O)N[C@@H](CCC(N)=O)C(=O)N[C@@H](CCC(N)=O)C(=O)N[C@@H](CCC(=O)O)C(=O)N[C@@H](CCCCN)C(=O)N[C@@H](CC(N)=O)C(=O)N[C@@H](CCC(=O)O)C(=O)N[C@@H](CCC(N)=O)C(=O)N[C@@H](CCC(=O)O)C(=O)O [Peptide N36E]
JRFL (R5) pseudovirus
  fold more active than Y36F, JRFL pseudovirus: 80 fold
[1]
  fold more active than Y36F, W61D pseudovirus: 18 fold
[2]
  fold more active than Y36F, HXB2 pseudovirus: 5 fold
HIV-1 pseudovirus; cells washed before virus
  inhibition, peptide preincubated with target cells then washed prior to addition of virus: no inhibitory effect
HIV-1 pseudovirus; peptide added 1 h after virus and cells
  inhibition, virus preincubated with cells for 1 h prior to addition of peptide: complete absence of inhibition
HIV-1 pseudovirus; simultaneous addition
  inhibitory effect, simultaneous mixing of virus, cells and peptide: most pronounced inhibitory effect
HIV-1 pseudovirus; virus washed before cells
  inhibition, virus preincubated with peptide 1 h at 37° C. then washed by ultrafiltration prior to addition to cells: weak but poorly reproducible inhibition
HIV-1 [3]
  fold more potent than analogues Y36F, K42K and E30E, frequently: 10 fold
  activity compared with the new analogues of T-20, T-21 and DP219: significantly greater potency
HIV-1 [4]
  activity compared with T20 and T1249: compare well to both T20 and to T1249
  IC50: 2 ± 1 nM

## CC[C@H](C)[C@H](NC(=O)[C@H](CCC(=O)O)NC(=O)[C@H](CCCNC(=N)N)NC(=O)[C@H](CCC(=O)O)NC(=O)[C@H](Cc1c[nH]c2ccccc12)NC(=O)[C@H](CCC(=O)O)NC(=O)[C@H](CCSC)NC(=O)[C@H](Cc1c[nH]c2ccccc12)NC(=O)[C@@H](NC(=O)[C@H](CCSC)NC(=O)[C@H](CC(N)=O)NC(=O)[C@H](CC(N)=O)NC(=O)[C@@H](N)Cc1c[nH]c2ccccc12)[C@@H](C)O)C(=O)N[C@@H](CC(=O)O)C(=O)N[C@@H](CC(N)=O)C(=O)N[C@@H](Cc1ccc(O)cc1)C(=O)N[C@H](C(=O)N[C@@H](CO)C(=O)N[C@@H](CC(C)C)C(=O)O)[C@@H](C)O [Peptide W19L]
HIV-1 IIIB
  MIC HIV-1IIIB infectivity: 0.06 µg/mL (≈ 0.0238 µM)

## CC[C@H](C)[C@H](NC(=O)[C@H](CC(C)C)NC(=O)[C@H](CO)NC(=O)[C@H](Cc1ccc(O)cc1)NC(=O)[C@@H](NC(=O)[C@H](CC(C)C)NC(=O)[C@H](CO)NC(=O)[C@@H](NC(=O)[C@H](Cc1ccc(O)cc1)NC(=O)[C@H](CC(N)=O)NC(=O)[C@H](CC(=O)O)NC(=O)[C@@H](NC(=O)[C@H](CCC(=O)O)NC(=O)[C@H](CCCNC(=N)N)NC(=O)[C@H](CCC(=O)O)NC(=O)[C@H](Cc1c[nH]c2ccccc12)NC(=O)[C@H](CCC(=O)O)NC(=O)[C@H](CCSC)NC(=O)[C@H](Cc1c[nH]c2ccccc12)NC(=O)[C@@H](NC(=O)[C@H](CCSC)NC(=O)[C@H](CC(N)=O)NC(=O)[C@H](CC(N)=O)NC(=O)[C@H](Cc1c[nH]c2ccccc12)NC(=O)[C@@H](NC(=O)[C@H](CCC(N)=O)NC(=O)[C@H](CCC(=O)O)NC(=O)[C@H](CC(C)C)NC(=O)[C@H](CO)NC(=O)[C@H](CCCCN)NC(=O)[C@H](CC(N)=O)NC(=O)[C@H](CO)NC(=O)[C@@H](N)Cc1c[nH]c2ccccc12)[C@@H](C)CC)[C@@H](C)O)[C@@H](C)CC)[C@@H](C)O)[C@@H](C)CC)C(=O)N[C@@H](CCC(=O)O)C(=O)N[C@@H](CCC(=O)O)C(=O)N[C@@H](CO)C(=O)N[C@@H](CCC(N)=O)C(=O)O [Peptide W37Q]
JRFL (R5) pseudovirus
  fold more active than Y36F, JRFL pseudovirus: ~15 fold
[1]
  fold more active than Y36F, W61D pseudovirus: ~20 fold
[5]
  fold more active than Y36F, WHO D clade pseudovirus: approximately 22 fold
HIV-1 [3]
  fold more potent than analogues Y36F, K42K and E30E, frequently: 10 fold
  activity compared with the new analogues of T-20, T-21 and DP219: significantly greater potency
HIV-1 [4]
  activity compared with T20 and T1249: compare well to both T20 and to T1249
  IC50: 5 ± 2 nM

## CC[C@H](C)[C@H](NC(=O)[C@H](CC(C)C)NC(=O)[C@H](CO)NC(=O)[C@H](Cc1ccc(O)cc1)NC(=O)[C@@H](NC(=O)[C@H](CC(C)C)NC(=O)[C@H](CO)NC(=O)[C@@H](NC(=O)[C@H](Cc1ccc(O)cc1)NC(=O)[C@H](CC(N)=O)NC(=O)[C@H](CC(=O)O)NC(=O)[C@@H](NC(=O)[C@H](CCC(=O)O)NC(=O)[C@H](CCCNC(=N)N)NC(=O)[C@H](CCC(=O)O)NC(=O)[C@H](Cc1c[nH]c2ccccc12)NC(=O)[C@@H](N)CCC(=O)O)[C@@H](C)CC)[C@@H](C)O)[C@@H](C)CC)C(=O)N[C@@H](CCC(=O)O)C(=O)N[C@@H](CCC(=O)O)C(=O)N[C@@H](CO)C(=O)N[C@@H](CCC(N)=O)C(=O)N[C@@H](CC(N)=O)C(=O)N[C@@H](CCC(N)=O)C(=O)N[C@@H](CCC(N)=O)C(=O)N[C@@H](CCC(=O)O)C(=O)N[C@@H](CCCCN)C(=O)N[C@@H](CC(N)=O)C(=O)N[C@@H](CCC(=O)O)C(=O)N[C@@H](CCC(N)=O)C(=O)N[C@@H](CCC(=O)O)C(=O)O [Synthesised DP219, reference compound]
HIV-1 IIIB
  ID50% HIV-1IIIB infectivity: 6.00 µg/mL (≈ 1.6 µM)
  ID90 HIV-1IIIB infectivity: 12.5 µg/mL (≈ 3.34 µM)

## Recombinant DP178 (peptide)
[6]
  ID50%, HIV-1IIIB infectivity: 0.05 µg/mL
  ID90, HIV-1IIIB infectivity: 0.09 µg/mL
  MIC, HIV-1IIIB infectivity: 0.009 µg/mL

## T20 (peptide)
[6]
  IC50, cell fusion assay (MAGI-CCR5 cells with HL2/3 cells expressing HIV-1IIIB Env): 30 nM

## WNASWSNKSLEQIWNNMTWMEWEREIDNYTSLIYSLI [Peptide W37I]
HIV-1 [3]
  activity compared with the new analogues of T-20, T-21 and DP219: broadly similar levels of activity

## enfuvirtide
[7]
  IC50: ~30 nM

Reference: patent US20040137426A1, “Gp41 peptides and methods based thereon for inhibiting HIV fusion to target cells” (priority 2002, published 2004)
